Test results from the supplement of paper PMC7840683.
± gives the standard deviation of the averaged measurements.

Tested on: HepaRG
Experiment: LDH release cytotoxicity, % of total lysis control; higher = more cytotoxic
Conditions: 48 h
In short: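 Percent cytotoxicity was scaled between on-plate vehicle and total lysis controls, then averaged over duplicate wells. The cells were single-lot HepaRG on collagen I-coated 96-well plates, exposed for 48 h to eight-point half-log test chemical series topping at 100 µM in serum-free induction medium with 0.5% DMSO. Total lysis wells got 0.1% Triton X, and LDH in 50 µL spent medium was read as resorufin fluorescence (CytoTox-ONE, Tecan Safire).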

O=S(=O)(O)c1ccc(N=Nc2c(O)ccc3cc(S(=O)(=O)O)ccc23)cc1 [FD&C Yellow 6]
Conditions | LDH release cytotoxicity [%]
0.03162 µM | -2.21 ± 0.52
0.1 µM | -2.28 ± 0.12
0.3162278 µM | -3.01 ± 0.6
1 µM | -3.07 ± 0.99
3.16228 µM | -4.37 ± 0.34
10 µM | -4.81 ± 0.16
31.6228 µM | -4.8 ± 0.5
100 µM | -4.65 ± 0.44

CN(C)C=O [N,N-Dimethylformamide]
Conditions | LDH release cytotoxicity [%]
0.03162 µM | -0.983 ± 1
0.1 µM | -2.55 ± 0.58
0.3162278 µM | -1.61 ± 0.38
1 µM | -2.12 ± 0.24
3.16228 µM | -2.02 ± 0.55
10 µM | -1.22 ± 0.21
31.6228 µM | -0.581 ± 0.99
100 µM | 0.434 ± 0.12

CCNc1nc(Cl)nc(NC(C)(C)C)n1 [Terbutylazine]
Conditions | LDH release cytotoxicity [%]
0.03162 µM | 0.3 ± 1.3
0.1 µM | -1.75 ± 0.07
0.3162278 µM | -0.304 ± 1.2
1 µM | -1.25 ± 0.2
3.16228 µM | -0.494 ± 0.44
10 µM | -0.989 ± 0.83
31.6228 µM | -0.271 ± 1.1
100 µM | -0.0173 ± 1.5

CC12CCC3C(CCC4CC(=O)CCC43C)C1CCC2O (stereo not drawn) [5alpha-Dihydrotestosterone]
Conditions | LDH release cytotoxicity [%]
0.0322552 µM | -1.49 ± 0.51
0.102 µM | -1.05 ± 0.64
0.322552 µM | -1.02 ± 0.95
1.02 µM | -0.777 ± 0.65
3.2255232 µM | -0.0601 ± 0.54
10.2 µM | 0.259 ± 0.88
32.2552 µM | 2.27 ± 0.7
102 µM | 7.51 ± 0.71

CNC(=O)ON=CC(C)(C)SC [Aldicarb]
Conditions | LDH release cytotoxicity [%]
0.03162 µM | -1.61 ± 1.2
0.1 µM | -1.37 ± 0.9
0.3162278 µM | -2.06 ± 0.65
1 µM | -1.68 ± 0.72
3.16228 µM | -1.686 ± 0.0048
10 µM | -0.703 ± 0.55
31.6228 µM | -1.04 ± 1
100 µM | -0.341 ± 0.039

Nc1nc(N)nc(NC2CC2)n1 [Cyromazine]
Conditions | LDH release cytotoxicity [%]
0.03162 µM | -1.4 ± 0.21
0.1 µM | -0.914 ± 1.1
0.3162278 µM | -0.958 ± 0.84
1 µM | -1.75 ± 0.58
3.16228 µM | -1.74 ± 0.52
10 µM | -1.14 ± 0.16
31.6228 µM | -1.52 ± 0.36
100 µM | 0.201 ± 0.23

CCC(C)N(C)C(=O)c1cc2ccccc2c(-c2ccccc2Cl)n1 (configuration not stated)
Conditions | LDH release cytotoxicity [%]
0.02008 µM | -1.37 ± 0.062
0.0635 µM | -2.28 ± 1.3
0.200805 µM | -3.22 ± 1
0.635 µM | -3.04 ± 1.1
2.00805 µM | -2.99 ± 0.44
6.35 µM | -2.9 ± 1.4
20.0805 µM | -1.43 ± 0.19
63.5 µM | 7.06 ± 0.25

CCCCCCCCC(=O)O [Nonanoic acid]
Conditions | LDH release cytotoxicity [%]
0.03162 µM | -1.22 ± 1.1
0.1 µM | -1.24 ± 0.71
0.3162278 µM | -0.597 ± 0.11
1 µM | -1.56 ± 0.047
3.16228 µM | -2.05 ± 0.21
10 µM | -1.39 ± 0.62
31.6228 µM | -1.11 ± 0.22
100 µM | 3.09 ± 0.27

N#CCCCCC#N [Hexanedinitrile]
Conditions | LDH release cytotoxicity [%]
0.03162 µM | -0.442 ± 0.26
0.1 µM | -0.226 ± 0.15
0.3162278 µM | 0.0594 ± 0.38
1 µM | -1 ± 1
3.16228 µM | -0.445 ± 0.31
10 µM | -0.461 ± 0.08
31.6228 µM | -0.494 ± 0.13
100 µM | 0.294 ± 0.37

COc1cnc(OC)n2nc(NS(=O)(=O)c3c(OCC(F)F)cccc3C(F)(F)F)nc12 [Penoxsulam]
Conditions | LDH release cytotoxicity [%]
0.03162 µM | -0.317 ± 0.26
0.1 µM | -1.82 ± 0.45
0.3162278 µM | -1.21 ± 0.65
1 µM | -1.71 ± 0.57
3.16228 µM | -0.488 ± 0.1
10 µM | -0.309 ± 0.71
31.6228 µM | -1.02 ± 0.03
100 µM | 0.729 ± 0.1

OCc1ccccc1 [Benzyl alcohol]
Conditions | LDH release cytotoxicity [%]
0.03162 µM | -0.977 ± 0.76
0.1 µM | -1.47 ± 0.31
0.3162278 µM | -1.57 ± 1.4
1 µM | -2.41 ± 1.3
3.16228 µM | -1.69 ± 0.91
10 µM | -1.73 ± 1.6
31.6228 µM | -1.32 ± 1.4
100 µM | -1.07 ± 1.2

O=C(O)C(F)(F)C(F)(F)C(F)(F)C(F)(F)C(F)(F)C(F)(F)F [Perfluoroheptanoic acid]
Conditions | LDH release cytotoxicity [%]
0.03162 µM | -2.26 ± 1
0.1 µM | -2.63 ± 0.69
0.3162278 µM | -3.62 ± 0.96
1 µM | -3.63 ± 0.086
3.16228 µM | -2.82 ± 0.55
10 µM | -2.95 ± 0.085
31.6228 µM | -2.44 ± 0.19
100 µM | -2.23 ± 0.48

Nc1cccc(N)c1 [1,3-Benzenediamine]
Conditions | LDH release cytotoxicity [%]
0.03162 µM | -1.18 ± 0.7
0.1 µM | -2.11 ± 0.27
0.3162278 µM | -1.93 ± 0.12
1 µM | -1.36 ± 0.52
3.16228 µM | -1 ± 0.48
10 µM | -0.806 ± 0.47
31.6228 µM | -1.17 ± 0.023
100 µM | 0.323 ± 1.3

O=CCCCC=O [Glutaraldehyde]
Conditions | LDH release cytotoxicity [%]
0.03162 µM | -0.884 ± 0.62
0.1 µM | -1.62 ± 0.91
0.3162278 µM | -1.72 ± 0.78
1 µM | -1.74 ± 0.39
3.16228 µM | -1.11 ± 0.16
10 µM | -0.663 ± 0.23
31.6228 µM | -1.18 ± 0.084
100 µM | 0.174 ± 0.34

CN1C(=O)N(c2ccccc2Br)Cc2cnc(Nc3ccc4c(c3)OCC(CO)O4)nc21 (configuration not stated)
Conditions | LDH release cytotoxicity [%]
0.03162 µM | 0.454 ± 1.5
0.1 µM | -0.735 ± 1
0.3162278 µM | -1.07 ± 0.81
1 µM | -1.37 ± 0.18
3.16228 µM | -0.0336 ± 0.15
10 µM | 0.443 ± 0.9
31.6228 µM | 8.29 ± 1.1
100 µM | 63.4 ± 0.97

Cc1cc(C)nc(Nc2ccccc2)n1 [Pyrimethanil]
Conditions | LDH release cytotoxicity [%]
0.03162 µM | -0.263 ± 0.12
0.1 µM | -1.12 ± 0.91
0.3162278 µM | -0.512 ± 0.19
1 µM | -1.63 ± 0.11
3.16228 µM | -0.622 ± 0.45
10 µM | -0.288 ± 0.51
31.6228 µM | 0.157 ± 1.1
100 µM | 3.8 ± 1.4

CS(=O)(=O)c1ccc(C(CC2CCC(=O)C2)C(=O)Nc2cnccn2)cc1Cl (configuration not stated) [Piragliatin]
Conditions | LDH release cytotoxicity [%]
0.03162 µM | -0.668 ± 0.37
0.1 µM | -1.54 ± 1.1
0.3162278 µM | -0.661 ± 0.31
1 µM | -1.64 ± 1
3.16228 µM | -1.28 ± 0.2
10 µM | -0.831 ± 0.26
31.6228 µM | -1.24 ± 0.96
100 µM | -0.692 ± 0.1

Cc1ccc(C(C)(C)C)c(O)c1 [2-Tert-Butyl-5-methylphenol]
Conditions | LDH release cytotoxicity [%]
0.03162 µM | -2.27 ± 0.2
0.1 µM | -3.53 ± 0.25
0.3162278 µM | -3.17 ± 1.2
1 µM | -3.25 ± 0.28
3.16228 µM | -3.05 ± 0.58
10 µM | -1.24 ± 0.75
31.6228 µM | -1.73 ± 0.49
100 µM | 1.45 ± 1.3

O=C(CCCN1CCC(O)(c2ccc(Cl)cc2)CC1)c1ccc(F)cc1 [Haloperidol]
Conditions | LDH release cytotoxicity [%]
0.03162 µM | -1.32 ± 0.62
0.1 µM | -2.17 ± 0.32
0.3162278 µM | -1.58 ± 0.27
1 µM | -1.63 ± 0.15
3.16228 µM | -2.03 ± 0.68
10 µM | -1.44 ± 0.67
31.6228 µM | 4.34 ± 1.7
100 µM | 62.2 ± 7.4
